# Assay results taken from patent publication US11160770B2, “Compounds, compositions and methods for treating oxidative DNA damage disorders” (Indiana University Research and Technology Corporation, priority 2011, dated 2021).
# Target: redox function of APE1 (Homo sapiens, UniProt P27695)
# Assay: Redox EMSA Assay
# Assay type: biochemical
# Conditions: 0.02 mM DTT
# Method: EXAMPLE. Redox EMSA Assay. Conventional electrophoresis measuring Ape1 […] with 0.02 mM DTT is used to evaluate test compounds. Additional details are described in Fishel et al. Mol Cancer Ther. 2011 September; 10(9):1698-708 & Luo et al., Antioxid Redox Signal. 2008 November; 10(11):1853-67. […]
# Sequence of redox function of APE1 (P27695 whole entry): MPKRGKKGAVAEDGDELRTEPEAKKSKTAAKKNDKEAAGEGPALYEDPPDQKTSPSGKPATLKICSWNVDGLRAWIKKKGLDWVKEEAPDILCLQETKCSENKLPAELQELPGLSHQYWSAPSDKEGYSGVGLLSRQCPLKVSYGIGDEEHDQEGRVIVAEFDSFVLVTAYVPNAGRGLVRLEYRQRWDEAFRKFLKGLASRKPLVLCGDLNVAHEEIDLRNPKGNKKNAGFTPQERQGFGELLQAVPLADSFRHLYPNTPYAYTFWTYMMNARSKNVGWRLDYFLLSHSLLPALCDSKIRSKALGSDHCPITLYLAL
row,Structure (SMILES),IC50
1,CCC/C(=C\C1=C(OC)C(=O)c2ccccc2C1=O)C(=O)N(C)C [Example 2],2.3 µM
2,CCCC/C(=C\C1=C(C)C(=O)c2ccccc2C1=O)C(=O)NC1CCCCC1 [Example 14],98 µM
3,CCCCCCCCC/C(=C\C1=C(C)C(=O)C(OC)=C(OC)C1=O)C(=O)NOC [Example 29],17 µM
4,CCC/C(=C\C1=C(OC)C(=O)c2ccccc2C1=O)C(=O)N(CC)CC [Example 5],< 1 µM
5,CCCC/C(=C/C1=C(C)C(=O)c2ccccc2C1=O)C(=O)N1CCOCC1 [Example 17],25 µM
6,CCC/C(=C\C1=C(OC)C(=O)c2ccccc2C1=O)C(=O)NCC [Example 3],3.3 µM
7,CCC/C(=C\C1=C(O)C(=O)c2ccccc2C1=O)C(=O)O [Example 24],> 10 µM
8,CCCCCCCCC/C(=C\C1=C(C)C(=O)C(OC)=C(OC)C1=O)C(=O)N(C)CC(O)C(O)C(O)C(O)CO (stereo not drawn) [Example 30],15 µM
9,CCCC/C(=C\C1=C(C)C(=O)C(OC)=C(OC)C1=O)C(=O)N(C)OC [Example 31],24 µM
10,CCCC/C(=C\C1=C(OC)C(=O)c2ccccc2C1=O)C(=O)NOC [Example 10],< 1 µM
11,CCC/C(=C\C1=C(Cl)C(=O)c2ccccc2C1=O)C(=O)NOC [Example 22],< 2.5 µM
12,CCC/C(=C\C1=C(Cl)C(=O)c2ccccc2C1=O)C(=O)N(CC)CC [Example 23],2.5 µM
13,CCC/C(=C\C1=C(OC)C(=O)c2ccccc2C1=O)C(=O)NC [Example 1],6.2 µM
14,CCCC/C(=C\C1=C(OC)C(=O)c2ccccc2C1=O)C(=O)O [Example 33],0.5 µM
15,CCCC(=CC1=C(OC)C(=O)c2ccccc2C1=O)C(=O)N(CC)CC [Example 25],13 µM
16,CCCC/C(=C\C1=C(C)C(=O)c2ccccc2C1=O)C(=O)N1CCNC(=O)C1 [Example 15],23 µM
17,CCCC/C(=C\C1=C(C)C(=O)c2ccccc2C1=O)C(=O)N1CCOCC1 [Example 18],34 µM

# Other lines, results leading:
row,IC50,Structure (SMILES)
1,17 µM,CCCC/C(=C\C1=C(C)C(=O)c2ccccc2C1=O)C(=O)NC [Example 6]
2,94 µM,CCCC/C(=C\C1=C(C)C(=O)c2ccccc2C1=O)C(=O)NCCOC [Example 20]
3,2.6 µM,CCCC(=CC1=C(OC)C(=O)c2ccccc2C1=O)C(=O)N(C)C [Example 26]
4,47 to 52 µM,CCCC/C(=C\C1=C(C)C(=O)c2ccccc2C1=O)C(=O)O [Example 32]
5,14 µM,CCCC/C(=C\C1=C(C)C(=O)c2ccccc2C1=O)C(=O)NC1CC1 [Example 11]
6,20 µM,CCCC/C(=C\C1=C(C)C(=O)c2ccccc2C1=O)C(=O)NCC [Example 8]
7,26 µM,CCCC/C(=C\C1=C(C)C(=O)c2ccccc2C1=O)C(=O)N(C)OC [Example 16]
8,23 µM,CCCC/C(=C\C1=C(C)C(=O)c2ccccc2C1=O)C(=O)N(C)C [Example 7]
9,120 µM,CCCC/C(=C\C1=C(C)C(=O)c2ccccc2C1=O)C(=O)N(CC)CC [Example 9]
10,40 µM,CCCC/C(=C/C1=C(C)C(=O)c2ccccc2C1=O)C(=O)NCCOC [Example 21]
